According to PMC12655351, “Synthesis and Anticancer Activity Evaluation of New 5-((5-Nitrofuran-2-yl)allylidene)-2-thioxo-4-thiazolidinones” (Pharmaceuticals, 2025):

How the values were obtained:
BT-549 = conditions: BT-549, 48 h
UACC-257 [1] = experiment: cells; conditions: Homo sapiens, UACC-257, 48 h; for CC50: read-out: LC50, UACC-257, 48 h
ACHN = experiment: NCI-60 SRB screen; conditions: 48 h; for GI50 / CC50: Homo sapiens; for CC50: read-out: LC50, ACHN, 48 h
NCI-H460 = experiment: NCI-60 SRB screen; conditions: NCI-H460, 48 h; for GI50 / CC50: Homo sapiens; for CC50: read-out: LC50
MDA-MB-435 [2] = experiment: cells; conditions: Homo sapiens, MDA-MB-435, 48 h; for CC50: read-out: LC50, MDA-MB-435, 48 h
A498 = experiment: cells; conditions: Homo sapiens, A498, 48 h
HT29 [3] = experiment: cells; conditions: Homo sapiens, HT-29, 48 h; for GI50: HT29, 48 h; for CC50: read-out: LC50, HT29, 48 h
HCT-116 = experiment: cells; conditions: Homo sapiens, HCT-116, 48 h
SN12C = conditions: SN12C, 48 h
Renal Cancer = Renal Cancer subpanel
PC-3 = conditions: PC-3, 48 h
CAKI-1 = conditions: CAKI-1, 48 h
NCI-H322M = experiment: NCI-60 SRB screen; conditions: 48 h; for GI50 / CC50: Homo sapiens; for CC50: read-out: LC50, NCI-H322M, 48 h
UACC-257 [4] = conditions: UACC-257, 48 h
HT29 [5] = conditions: HT29, 48 h
UO-31 = conditions: UO-31, 48 h
[6] = tested on: Non-small cell lung cancer; conditions: Non-small cell lung cancer subpanel
OVCAR-8 = experiment: cells; conditions: Homo sapiens, OVCAR-8, 48 h; for CC50: read-out: LC50, OVCAR-8, 48 h
HS 578T = experiment: cells; conditions: Homo sapiens, 48 h; for GI50: HS 578T; for CC50: read-out: LC50
MALME-3M = experiment: NCI-60 SRB screen; conditions: 48 h; for GI50 / CC50: Homo sapiens, Malme-3M; for CC50: read-out: LC50, MALME-3M, 48 h; for TGI: MALME-3M
Breast cancer = Breast cancer subpanel
SK-MEL-5 [7] = conditions: SK-MEL-5, 48 h
SF-268 = experiment: cells; conditions: Homo sapiens, SF-268, 48 h; for CC50: read-out: LC50, SF-268, 48 h
LOX IMVI = conditions: LOX IMVI, 48 h
MDA-MB-435 [8] = conditions: MDA-MB-435, 48 h
[9] = tested on: panel of 60 cancer cell lines; experiment: cells; conditions: Homo sapiens, read-out: MG_MID GI50
M14 = experiment: NCI-60 SRB screen; conditions: M14, 48 h; for GI50 / CC50: Homo sapiens; for CC50: read-out: LC50, M14, 48 h
HCT-15 = experiment: NCI-60 SRB screen; conditions: HCT-15, 48 h; for GI50 / CC50: Homo sapiens; for CC50: read-out: LC50, HCT-15, 48 h
SK-MEL-5 [10] = experiment: cells; conditions: Homo sapiens, SK-MEL-5, 48 h; for CC50: read-out: LC50, SK-MEL-5, 48 h
Prostate Cancer = experiment: cells; conditions: Homo sapiens, read-out: MG_MID GI50

Q: How did the TGI (BT-549) turn out when `CCCC(C(=O)O)N1C(=O)/C(=C/C=C/c2ccc([N+](=O)[O-])o2)SC1=S` (stereo not shown) [4b, 2-((Z)-5-((E)-3-(5-Nitrofuran-2-yl)allylidene)-4-oxo-2-thioxothiazolidin-3-yl)pentanoic acid] was run?
A: 3.37 µM

Q: And the GI50 (UACC-257 [1])?
A: 1.96 µM

Q: And the CC50 (UACC-257 [1])?
A: 14.8 µM

Q: And the TGI (ACHN)?
A: 3.44 µM

Q: What about the GI50 (ACHN) of the same molecule?
A: 1.72 µM

Q: What about the CC50 (ACHN) of the same molecule?
A: 6.87 µM

Q: And the GI50 (NCI-H460)?
A: 1.7 µM

Q: And the CC50 (NCI-H460)?
A: 6.23 µM

Q: What about the TGI (NCI-H460) of the same molecule?
A: 3.25 µM

Q: And the GI50 (MDA-MB-435 [2])?
A: 1.62 µM

Q: And the CC50 (MDA-MB-435 [2])?
A: 6.77 µM

Q: And the GI50 (A498)?
A: 2.24 µM

Q: And the GI50 (HT29 [3])?
A: 1.95 µM

Q: And the CC50 (HT29 [3])?
A: 7.45 µM

Q: And the GI50 (HCT-116)?
A: 1.82 µM

Q: What about the “growth GP” value (SN12C; 10 μM) of the same molecule?
A: -95.04%

Q: What about the TGI (SN12C) of the same molecule?
A: 4.05 µM

Q: And the “MG_MID TGI” value (Renal Cancer)?
A: 4.25 µM

Q: What about the TGI (PC-3) of the same molecule?
A: 10.7 µM

Q: What about the TGI (CAKI-1) of the same molecule?
A: 3.70 µM

Q: And the TGI (NCI-H322M)?
A: 14.2 µM

Q: And the GI50 (NCI-H322M)?
A: 3.72 µM

Q: What about the CC50 (NCI-H322M) of the same molecule?
A: 38.1 µM

Q: What about the TGI (UACC-257 [4]) of the same molecule?
A: 4.82 µM

Q: And the TGI (HT29 [5])?
A: 3.81 µM

Q: And the TGI (UO-31)?
A: 3.33 µM

Q: And the “MG_MID TGI” value [6]?
A: 6.56 µM

Q: And the GI50 (OVCAR-8)?
A: 1.98 µM

Q: And the CC50 (OVCAR-8)?
A: 13 µM

Q: And the GI50 (HS 578T)?
A: 1.87 µM

Q: What about the CC50 (HS 578T) of the same molecule?
A: > 100 µM

Q: What about the GI50 (MALME-3M) of the same molecule?
A: 1.8 µM

Q: What about the CC50 (MALME-3M) of the same molecule?
A: 6.4 µM

Q: What about the TGI (MALME-3M) of the same molecule?
A: 3.40 µM

Q: What about the “MG_MID TGI” value (Breast cancer) of the same molecule?
A: 5.00 µM

Q: What about the TGI (SK-MEL-5 [7]) of the same molecule?
A: 2.79 µM

Q: What about the GI50 (SF-268) of the same molecule?
A: 2.04 µM

Q: And the CC50 (SF-268)?
A: 9.72 µM

Q: And the TGI (LOX IMVI)?
A: 3.12 µM

Q: What about the TGI (MDA-MB-435 [8]) of the same molecule?
A: 3.31 µM

Q: And the GI50 [9]?
A: 2.17 µM

Q: And the GI50 (M14)?
A: 1.83 µM

Q: And the CC50 (M14)?
A: 7.74 µM

Q: What about the TGI (M14) of the same molecule?
A: 3.77 µM

Q: And the TGI (HCT-15)?
A: 3.39 µM

Q: And the GI50 (HCT-15)?
A: 1.65 µM

Q: What about the CC50 (HCT-15) of the same molecule?
A: 6.97 µM

Q: And the GI50 (SK-MEL-5 [10])?
A: 1.47 µM

Q: What about the CC50 (SK-MEL-5 [10]) of the same molecule?
A: 5.31 µM

Q: And the GI50 (Prostate Cancer)?
A: 2.65 µM

Q: What does the source list for `O=C(O)C(c1ccccc1)N1C(=O)/C(=C/C=C/c2ccc([N+](=O)[O-])o2)SC1=S` (stereo not shown) [9b, 2-((Z)-5-((E)-3-(5-Nitrofuran-2-yl)allylidene)-4-oxo-2-thioxothiazolidin-3-yl)-2-phenylacetic acid]?
A: TGI (BT-549): 7.81 µM; GI50 (UACC-257 [1]): 13.2 µM; CC50 (UACC-257 [1]): 56.1 µM; TGI (ACHN): 21.4 µM; GI50 (ACHN): 9.25 µM; CC50 (ACHN): 47.2 µM; GI50 (NCI-H460): 11.6 µM; CC50 (NCI-H460): 73.6 µM; TGI (NCI-H460): 29.2 µM; GI50 (MDA-MB-435 [2]): 3.04 µM; CC50 (MDA-MB-435 [2]): 40.6 µM; GI50 (A498): 20.8 µM; GI50 (HT29 [3]): 5.02 µM; CC50 (HT29 [3]): 94.5 µM; GI50 (HCT-116): 2.68 µM; CC50 (HCT-116; read-out: LC50, HCT-116, 48 h): > 100 µM; TGI (SN12C): 18.3 µM; MG_MID TGI (Renal Cancer): 22.1 µM; TGI (PC-3): 29.9 µM; TGI (CAKI-1): 19.7 µM; TGI (NCI-H322M): 26.6 µM; GI50 (NCI-H322M): 13.4 µM; CC50 (NCI-H322M): 52.5 µM; TGI (UACC-257 [4]): 27.2 µM; TGI (HT29 [5]): 22.4 µM; TGI (UO-31): 23.4 µM; MG_MID TGI [6]: 31.8 µM; GI50 (OVCAR-8): 11.1 µM; CC50 (OVCAR-8): 58.5 µM; GI50 (HS 578T): 4.59 µM; CC50 (HS 578T): > 100 µM; GI50 (MALME-3M): 5.4 µM; CC50 (MALME-3M): 48.8 µM; TGI (MALME-3M): 18.7 µM; MG_MID TGI (Breast cancer): 22.2 µM; TGI (SK-MEL-5 [7]): 13.7 µM; GI50 (SF-268): 10.8 µM; CC50 (SF-268): 52.2 µM; TGI (LOX IMVI): 25.9 µM; TGI (MDA-MB-435 [8]): 13.0 µM; GI50 [9]: 9.03 µM; GI50 (M14): 12.6 µM; CC50 (M14): 58 µM; TGI (M14): 27.0 µM; TGI (HCT-15): 22.9 µM; GI50 (HCT-15): 7.73 µM; CC50 (HCT-15): 59 µM; GI50 (SK-MEL-5 [10]): 3.38 µM; CC50 (SK-MEL-5 [10]): 38.8 µM; GI50 (Prostate Cancer): 12.5 µM
